From patent publication US5468772A, “Tripterinin compound and method” (Pharmagenesis, Inc., priority 1993, dated 1995)

Experiments:
mouse thymocytes [1] = assay: Inhibition of IL-1 action: IL-1 stimulated mouse thymocyte proliferation in presence of PHA; type: cell-based
Method: The ability of tripterinin and tripterifordin to suppress the cell-proliferative effect of IL-1 in mouse thymocytes, an index of IL-1 action (O'Gara), was also examined. In this study, mouse thymocytes in culture were stimulated with IL-1 in the presence of phytohemagglutinin (PHA) and increasing concentrations of purified tripterinin or tripterifordin. The cells were cultured for 72 hours, and during the last four hours, incubated with tritiated thymidine. DNA synthesis was assessed by measurement of radiolabeled thymidine incorporation.
Mouse thymocytes were prepared, and the action of IL-1, which stimulates thymocyte proliferation, was measured using standard techniques (O'Gara). Three to six week old C3H/HeN mice were obtained from Simonsen Laboratories, Gilroy, Calif. and sacrificed by CO2 inhalation. Thymi were removed, separated from adherent non-thymic tissue, homogenized in Hank's balanced salt solution (Gibco) using a glass homogenizer, and centrifuged at 180×g for 10 minutes at 15° C. Following an additional wash in HBSS, the thymocytes were resuspended in RPMI 1640 tissue culture medium (Gibco) containing 50 μM 2-mercaptoethanol (Fisher), 2 mM glutamine (Gibco), 1 mM sodium pyruvate, non-essential amino acids, penicillin (100 U/ml) streptomycin (100 μg/ml), 10% heat inactivated fetal bovine serum and Phytohemagglutinin (PHA, Pharmacia, final concentration 10 μg/ml). Cells were cultured in round-bottom 96 well microtiter tissue culture plates, 6×10^5 cells per well in a volume of 100 μl. Tripterinin or tripterifordin was diluted in tissue culture medium and added to the wells in the presence and absence of IL-1 (recombinant human IL-1, R&D Systems catalog #201-LB, 0.1 ng/ml). Total volume was 150 μl per well.
Plates were incubated for 72 hours (95% air/5% CO2, 37° C.). During the last four hours of incubation, [^3 H]-thymidine (Amersham, […]) was added (0.5 μCi per well). Cells were harvested onto Whatman 934-AH glass microfiber filters and counted in a Beckman LS 6000 scintillation counter. Results were expressed as counts per minute per well.

IL2 = assay: IL-2 production by PHA stimulated human PBLs (ELISA); type: cell-based; details: 24 h
Method: (§1) The effect of tripterinin on the production of the cytokines IL-1b, IL2, IL-6, IFNγ, and TNFα was assessed by measurement of the concentration of these cytokines in PHA stimulated human PBL cultures. Cytokine levels were measured by standard ELISA methods using commercially available kits, as detailed in Example 6. Briefly, assay buffer was added to each of the wells of a microtiter plate containing pre-bound anti-cytokine antibody, followed by addition of standard or sample solution, diluted appropriately for the cytokine concentration measured, followed by a second reporter-labeled antibody specific against the anti-cytokine antibody. […]
(§2) Cytokine measurements were carried out using commercially available ELISA assay kits (R&D Systems), in accordance with the supplier's protocols. In brief, 100 μl of the assay buffer supplied was added to each of the wells of a microtiter plate containing pre-bound anti-cytokine antibody, followed by 100 μl of standard or sample solution, diluted appropriately for the concentration range measured. […]
(§3) Following two hours incubation, the plates were washed four times with assay buffer, and the second antibody, anti-anti-cytokine-horseradish peroxidase (HRP), was added to each well in a volume of 200 μl. […] Optical density was determined using a Molecular Devices microtiter plate reader.

TNFα = TNFα production by PHA stimulated human PBLs (ELISA); type: cell-based; details: 24 h
Method: as §1, §2, §3

mouse thymocytes [2] = assay: Cytotoxicity, MTT reduction, mouse thymocytes; type: cell-based; details: up to 10 μg/ml, highest tested, 24 h
Method: (§4) Potential cytotoxicity of tripterinin was assessed by measurement of the effect of the compound on reduction of MTT (3-[4,5-Dimethylthiazol-2-yl]-2,5-diphenyltetrazolium bromide) by cultured cells, an index of cellular respiration and a sensitive assay for the detection of cytotoxicity (Green, et al.). Toxicity was evaluated in vitro in human PBLs and in mouse thymocytes, as detailed in Example 7. Sodium azide was used as a cytotoxic control. Cytotoxicity was also assessed using the standard method of trypan blue dye staining.
(§5) Potential cytotoxicity of tripterinin was assessed by measurement of the compound's effect on the reduction of MTT (3-[4,5-Dimethylthiazol-2-yl]-2,5-diphenyltetrazolium bromide) by cultured cells. MTT, a yellow-colored compound, is reduced by mitochondrial enzymes to form a purple crystalline reduction product (formazan), providing an index of cellular respiration as well as a sensitive assay for cytotoxicity (Green, et al.).
(§6) Cytotoxicity was assessed in cultured human PBLs and mouse thymocytes. […] (to solubilize the formazan crystals, the MTT reduction product), optical density was determined at 570-650 nm in a Molecular Devices microtiter plate reader. Data are expressed as the ratio of the optical density of the tripterinin treated sample to that of untreated controls. […]

IL-6 = IL-6 production by PHA stimulated human PBLs (ELISA); type: cell-based; details: 24 h
Method: as §1, §2, §3

[3] = tested on: cultured human PBLs and mouse thymocytes; assay: Cytotoxicity, trypan blue vital dye staining; type: cell-based; details: up to 10 μg/ml
Method: as §4
Cytotoxicity was assessed in cultured human PBLs and mouse thymocytes. A stock solution of MTT (Sigma), 5 mg MTT/ml phosphate buffered saline, pH 7.4, was prepared and stored in the dark at 4° C. Following 21 hours incubation under conditions identical to those above, 25 μl of MTT solution was added to each culture well. After an additional 3 hour incubation, the experiment was terminated by addition of a solution of 10% sodium dodecyl sulfate in 0.01N HCl. Following overnight incubation at 37° C. (to solubilize the formazan crystals, the MTT reduction product), optical density was determined at 570-650 nm in a Molecular Devices microtiter plate reader. Data are expressed as the ratio of the optical density of the tripterinin treated sample to that of untreated controls. […] The standard method of trypan blue vital dye staining was also used to assess toxicity.

[4] = Solubility of crystalline tripterinin in organic solvents; type: physicochemical; details: methylene chloride or acetone
human PBLs = assay: Cytotoxicity, MTT reduction, human PBLs; type: cell-based; details: up to 10 μg/ml, highest tested, 24 h
Method: as §4, §5, §6

## C[C@]12CCC[C@]3(COC1=O)[C@@H]2CC[C@@]12C[C@@H](CC[C@]13O)[C@](C)(O)C2 [tripterinin]
Mouse thymocytes [1]; mouse thymocytes, IL-1 with PHA, FIG. 10
  concentration at which IL-1 stimulated cell proliferation was inhibited: about 0.2 μg/ml
Mouse thymocytes [1]; tripterifordin 3.13 μg/ml, about 3 μg/ml, tripterinin 0.02 to 1 μg/ml
  inhibition of IL-1 stimulated thymocyte proliferation: dose dependent inhibition
IL2; 0.7 μg/ml tripterinin
  decrease in IL2 production: 96%
IL2; 3.13 μg/ml tripterinin
  decrease in IL2 production: 96%
TNFα; 0.7 μg/ml tripterinin
  decrease in TNFα production: 93%
TNFα; 3.13 μg/ml tripterinin
  decrease in TNFα production: 98%
Mouse thymocytes [2]
  cytotoxicity (MTT reduction): No significant toxicity
Mouse thymocytes [2]; listed as Tripterinin
  cytotoxicity (MTT reduction): no significant toxicity
IL-6; 0.7 μg/ml tripterinin
  decrease in IL-6 production: 83%
IL-6; 3.13 μg/ml tripterinin
  decrease in IL-6 production: 99%
[3]
  cytotoxicity (trypan blue staining): consistent with those from the MTT reduction assay
[3]; listed as Tripterinin
  cytotoxicity (trypan blue staining): no significant toxicity
[4]
  dissolution of crystalline compound: dissolved easily
Human PBLs
  cytotoxicity (MTT reduction): No significant toxicity
Human PBLs; listed as Tripterinin
  cytotoxicity (MTT reduction): no significant toxicity
